# Values of other authors in patent US11136326B2, “Pyrrolopyrimidine derivatives as TAM inhibitors” (Incyte Corporation, priority 2015, dated 2021).
# Test system: NK cells
smiles,measurement,value
CCOc1cn(-c2ccc(F)cc2C)nc1C(=O)Nc1ccc(Oc2ccnc3cc(OC)c(OC)cc23)c(F)c1 [LDC1267],NK cell activation,activates NK cells
